Measured values taken from PubChem BioAssay (NCI).
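Interpolation was linear, between the two tested concentrations surrounding the appropriate level; five concentrations were tested over 48 hours in 96-well plates. The concentration for full growth arrest is given as TGI.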

Assays:
Experiment in all cases: DTP human tumour cell line panel, 48 h
LXFL 529 NSCLC = test system: LXFL 529 NSCLC
A549 NSCLC = test system: A549 NSCLC
LOX IMVI melanoma = test system: LOX IMVI melanoma
UACC-62 melanoma = test system: UACC-62 melanoma
SR leukemia = test system: SR leukemia
KM12 colon = test system: KM12 colon
SF-539 CNS = test system: SF-539 CNS
NCI-H23 lung = test system: NCI-H23 lung
HCT-15 colon = test system: HCT-15 colon
NCI-H226 lung = test system: NCI-H226 lung
UACC-257 melanoma = test system: UACC-257 melanoma
UO-31 renal = test system: UO-31 renal
KM20L2 colon = test system: KM20L2 colon
SK-OV-3 ovarian = test system: SK-OV-3 ovarian
EKVX NSCLC = test system: EKVX NSCLC
HCT-116 colon = test system: HCT-116 colon
DMS 273 small cell lung = test system: DMS 273 small cell lung
NCI-H460 lung = test system: NCI-H460 lung
ACHN renal = test system: ACHN renal
OVCAR-4 ovarian = test system: OVCAR-4 ovarian
NCI-H522 lung = test system: NCI-H522 lung
SK-MEL-5 melanoma = test system: SK-MEL-5 melanoma
SK-MEL-2 melanoma = test system: SK-MEL-2 melanoma
SF-295 CNS = test system: SF-295 CNS
OVCAR-8 ovarian = test system: OVCAR-8 ovarian
786-0 renal = test system: 786-0 renal
TK-10 renal = test system: TK-10 renal
M14 melanoma = test system: M14 melanoma
K-562 leukemia = test system: K-562 leukemia
HL-60(TB) leukemia = test system: HL-60(TB) leukemia
HCC-2998 colon = test system: HCC-2998 colon
HOP-92 NSCLC = test system: HOP-92 NSCLC
SNB-78 CNS = test system: SNB-78 CNS
U251 CNS = test system: U251 CNS
COLO 205 colon = test system: COLO 205 colon
RPMI-8226 leukemia = test system: RPMI-8226 leukemia
MALME-3M melanoma = test system: MALME-3M melanoma
HOP-62 NSCLC = test system: HOP-62 NSCLC
CAKI-1 renal = test system: CAKI-1 renal
CCRF-CEM leukemia = test system: CCRF-CEM leukemia
A498 renal = test system: A498 renal
MOLT-4 leukemia = test system: MOLT-4 leukemia
OVCAR-5 ovarian = test system: OVCAR-5 ovarian
SNB-75 CNS = test system: SNB-75 CNS
HT29 colon = test system: HT29 colon
OVCAR-3 ovarian = test system: OVCAR-3 ovarian
IGROV1 ovarian = test system: IGROV1 ovarian
RXF 393 renal = test system: RXF 393 renal
DMS 114 small cell lung = test system: DMS 114 small cell lung
DLD-1 colon = test system: DLD-1 colon
XF 498 CNS = test system: XF 498 CNS
SK-MEL-28 melanoma = test system: SK-MEL-28 melanoma
M19-MEL melanoma = test system: M19-MEL melanoma
HOP-18 NSCLC = test system: HOP-18 NSCLC
SF-268 CNS = test system: SF-268 CNS
SN12C renal = test system: SN12C renal
SNB-19 CNS = test system: SNB-19 CNS
SW-620 colon = test system: SW-620 colon

O=C(Cc1csc(-c2nc(CC(=O)NNc3ccccc3)cs2)n1)NNc1ccccc1
TGI (LXFL 529 NSCLC): > 100 µM | TGI (A549 NSCLC): > 100 µM | TGI (LOX IMVI melanoma): 43.7 µM | TGI (UACC-62 melanoma): > 100 µM | TGI (SR leukemia): 53.6 µM | TGI (KM12 colon): > 100 µM | TGI (SF-539 CNS): > 100 µM | TGI (NCI-H23 lung): > 100 µM | TGI (HCT-15 colon): > 100 µM | TGI (NCI-H226 lung): > 100 µM | TGI (UACC-257 melanoma): > 100 µM | TGI (UO-31 renal): > 100 µM | TGI (KM20L2 colon): > 100 µM | TGI (SK-OV-3 ovarian): > 100 µM | TGI (EKVX NSCLC): > 100 µM | TGI (HCT-116 colon): > 100 µM | TGI (DMS 273 small cell lung): 34.2 µM | TGI (NCI-H460 lung): 60.4 µM | TGI (ACHN renal): > 100 µM | TGI (OVCAR-4 ovarian): > 100 µM | TGI (NCI-H522 lung): 43.5 µM | TGI (SK-MEL-5 melanoma): > 100 µM | TGI (SK-MEL-2 melanoma): > 100 µM | TGI (SF-295 CNS): > 100 µM | TGI (OVCAR-8 ovarian): > 100 µM | TGI (786-0 renal): > 100 µM | TGI (TK-10 renal): > 100 µM | TGI (M14 melanoma): > 100 µM | TGI (K-562 leukemia): > 100 µM | TGI (HL-60(TB) leukemia): > 100 µM | TGI (HCC-2998 colon): > 100 µM | TGI (HOP-92 NSCLC): > 100 µM | TGI (SNB-78 CNS): > 100 µM | TGI (U251 CNS): > 100 µM | TGI (COLO 205 colon): 64 µM | TGI (RPMI-8226 leukemia): > 100 µM | TGI (MALME-3M melanoma): > 100 µM | TGI (HOP-62 NSCLC): > 100 µM | TGI (CAKI-1 renal): > 100 µM | TGI (CCRF-CEM leukemia): > 100 µM | TGI (A498 renal): > 100 µM | TGI (MOLT-4 leukemia): > 100 µM | TGI (OVCAR-5 ovarian): > 100 µM | TGI (SNB-75 CNS): > 100 µM | TGI (HT29 colon): > 100 µM | TGI (OVCAR-3 ovarian): > 100 µM | TGI (IGROV1 ovarian): > 100 µM | TGI (RXF 393 renal): > 100 µM | TGI (DMS 114 small cell lung): 45.1 µM | TGI (DLD-1 colon): > 100 µM | TGI (XF 498 CNS): > 100 µM | TGI (SK-MEL-28 melanoma): > 100 µM | TGI (M19-MEL melanoma): > 100 µM | TGI (HOP-18 NSCLC): > 100 µM | TGI (SF-268 CNS): > 100 µM | TGI (SN12C renal): > 100 µM | TGI (SNB-19 CNS): > 100 µM

O=S(=O)(N/N=C/c1cccc(Cl)c1Cl)c1ccccc1
TGI (LXFL 529 NSCLC): > 100 µM | TGI (A549 NSCLC): > 100 µM | TGI (LOX IMVI melanoma): > 100 µM | TGI (UACC-62 melanoma): > 100 µM | TGI (SR leukemia): > 100 µM | TGI (KM12 colon): > 100 µM | TGI (SF-539 CNS): > 100 µM | TGI (NCI-H23 lung): > 100 µM | TGI (HCT-15 colon): > 100 µM | TGI (NCI-H226 lung): > 100 µM | TGI (UACC-257 melanoma): > 100 µM | TGI (UO-31 renal): > 100 µM | TGI (KM20L2 colon): > 100 µM | TGI (SK-OV-3 ovarian): > 100 µM | TGI (EKVX NSCLC): > 100 µM | TGI (HCT-116 colon): > 100 µM | TGI (DMS 273 small cell lung): > 100 µM | TGI (NCI-H460 lung): > 100 µM | TGI (ACHN renal): > 100 µM | TGI (OVCAR-4 ovarian): > 100 µM | TGI (SK-MEL-5 melanoma): > 100 µM | TGI (SK-MEL-2 melanoma): > 100 µM | TGI (SF-295 CNS): > 100 µM | TGI (OVCAR-8 ovarian): > 100 µM | TGI (786-0 renal): > 100 µM | TGI (TK-10 renal): > 100 µM | TGI (M14 melanoma): > 100 µM | TGI (K-562 leukemia): > 100 µM | TGI (HL-60(TB) leukemia): > 100 µM | TGI (HCC-2998 colon): > 100 µM | TGI (HOP-92 NSCLC): 82.5 µM | TGI (SNB-78 CNS): > 100 µM | TGI (U251 CNS): > 100 µM | TGI (COLO 205 colon): > 100 µM | TGI (RPMI-8226 leukemia): > 100 µM | TGI (MALME-3M melanoma): > 100 µM | TGI (HOP-62 NSCLC): > 100 µM | TGI (CAKI-1 renal): > 100 µM | TGI (CCRF-CEM leukemia): > 100 µM | TGI (A498 renal): > 100 µM | TGI (MOLT-4 leukemia): 58.1 µM | TGI (OVCAR-5 ovarian): > 100 µM | TGI (SNB-75 CNS): > 100 µM | TGI (HT29 colon): > 100 µM | TGI (OVCAR-3 ovarian): > 100 µM | TGI (IGROV1 ovarian): > 100 µM | TGI (RXF 393 renal): > 100 µM | TGI (DMS 114 small cell lung): 90.3 µM | TGI (SW-620 colon): > 100 µM | TGI (DLD-1 colon): > 100 µM | TGI (XF 498 CNS): > 100 µM | TGI (SK-MEL-28 melanoma): > 100 µM | TGI (M19-MEL melanoma): > 100 µM | TGI (HOP-18 NSCLC): > 100 µM | TGI (SF-268 CNS): > 100 µM | TGI (SN12C renal): > 100 µM
